Reference: a melting point compilation (Tetko et al.; mined from patent text by program, amines drawn as free bases though some values may be those of a salt)

SMILES | melting point
Cc1oc2ccccc2c(=O)c1C(=O)O | 120 to 135 °C
OC(CCN1CCC(c2ccc(F)cc2)CC1)c1ccc(-c2ccccc2)cc1 (stereo not drawn) | 129 to 132 °C
c1ccc(-c2nc3cc4oc(-c5ccccc5)nc4cc3o2)cc1 | 319 to 323 °C
COc1cc(C)ccc1Oc1ccc([N+](=O)[O-])cc1 | 78 to 80 °C
Oc1ccc2c(-c3ccc4c(Br)c(O)ccc4c3)noc2c1 | 275 to 277 °C
COC(=O)c1coc2cc(Oc3cc(COCc4ccccc4)ncn3)ccc12 | 85 to 86 °C
Fc1ccccc1Cn1c(-c2ccc3c(c2)OCO3)nc2ccccc21 | 149 to 150 °C
N#CCCNN=Cc1ccc(C=NNCCC#N)cc1 | 111 to 113 °C
O=C(O)C(Cl)(Cl)CCCCCCCCCCCCSc1ccccc1 | 74 °C
CN(C)C(=S)SCC(c1cccc2ccccc12)[N+](=O)[O-] (stereo not drawn) | 136 to 138 °C
O=C(O)CC1CCC(N2CCC(CNc3ccncc3)CC2)CC1 (stereo not drawn) | 260 °C
O=C1CC(c2ccccc2)(c2ccncc2)Oc2ccccc21 (stereo not drawn) | 123 to 130 °C
CCOP(=O)(OCC)C(CCc1cc(C)nc2cc(OC(=O)c3ccccc3)nn12)P(=O)(OCC)OCC | 56 to 57 °C
O=C(Cc1ccccc1Nc1c(Cl)cccc1Cl)OCc1ccccn1 | 80 to 81 °C
CC(C)c1cc(-c2ccccc2)nc(-c2ccc(F)cc2)c1CO | 172 to 174 °C
CO[C@]1(c2csc(Sc3ccc(/C(C)=N/O)cc3)c2)CCO[C@@H]1C (racemic) | 89 to 90 °C
O=C(O)[C@@H]1O[C@@H]1c1ccccc1 | 81.5 to 83 °C
Cc1cc(O)ccc1N1CCc2c1c1cccc(C)c1[nH]c2=O | 244 to 246 °C
O=C(Cn1c(-c2ccc(Cl)cc2)nc2cccnc21)N1CCCCC1 | 176 to 178 °C
CC(C)c1nc2c(C(F)(F)F)cccc2c(O)c1C(=O)O | 204 °C
COc1cc(OC)nc(Nc2cc(C)ccc2N)n1 | 128 to 129 °C
O=C(O)CCOc1cccc2cccnc12 | 211 to 213 °C
Nc1snc2nc(-c3ccccc3)sc12 | 176 to 179 °C
O=C(OCC(F)(F)F)c1ncn2c1CN=C(c1ccccc1F)c1cc(Br)ccc1-2 | 223 to 224 °C
CSc1cccc(-n2ncc(-c3ccc(S(C)(=O)=O)cc3)c(-c3ccc(F)cc3)c2=O)c1 | 196 °C
N#Cc1ccccc1CN1CCC(=O)C(C(c2ccc(F)cc2)c2ccc(F)cc2)C1 (stereo not drawn) | 83 to 84 °C
C=Cc1ccc(-c2cc(NC(=O)C3Cc4ccccc4C3)n[nH]2)cc1 | 193 to 195 °C
CC1(C(=O)c2c[nH]c3ncc(Br)nc23)CCCC1 | 207 to 208 °C
O=C(O)c1cccc2c1Cc1c-2[nH]c2ccc(Cl)cc12 | > 300 °C

Continued, values first:

melting point | SMILES
126 to 127 °C | O=C(c1ccc(Cl)cc1)c1cc2ccccc2cn1
139 to 144 °C | Cc1cc(N(C)CCO)cc(C)n1
100 to 103 °C | Cc1ccc(N)c(-c2nc(C(F)(F)F)cs2)c1
140 to 141 °C | COC(=O)CNC(=O)c1cc(Cl)nc(Cl)c1
235 °C | O=c1[nH]c2ccc(N3CCOCC3)cc2c(=O)o1
215 to 220 °C | CC(=O)OCC1CCn2c(c(C3=C(c4cn(C)c5ccc(Br)cc45)C(=O)OC3=O)c3ccccc32)C1 (stereo not drawn)
136 to 139 °C | CCCCc1oc2ccccc2c1C(=O)Nc1ccc2c(Br)c(OC(Cc3ccccc3)C(=O)OC)ccc2c1 (stereo not drawn)
225 to 230 °C | O=C1Nc2cc(F)ccc2Nc2ccsc21
> 300 °C | COc1cc2ncc(C#N)c(Nc3ccc4c(C)cc(=O)[nH]c4c3)c2cc1OC
224 to 225 °C | Cc1cc(C)c(Nc2nc(Nc3ccc(C#N)cc3)ncc2N)c(C)c1
81 to 83 °C | COC(=O)c1cc(CCc2cc(OC)ccc2OC)ccc1NC(C)=O
113 to 114 °C | CC(C)CCCC(C)C1CC=C2C3=C(CCC21C)C1(C)CCC(O)CC1CC3 (stereo not drawn)
139 °C | Fc1cc(F)cc(CN2CCN(c3cc(-c4ccccc4)c(C(F)(F)F)nn3)CC2)c1
89 °C | CC(C)(C)c1cc(CC=Cc2ccccc2)c(O)c(C(C)(C)C)c1
315 to 325 °C | NC(=O)c1cc2[nH]c3ccccc3c(=O)n2n1
152 to 153 °C | Cc1c(O)c(C)c2c(C)cn(C(=O)C(C)(C)C)c2c1C
192 to 193 °C | Cc1nc(C)c(-c2ccnc(Nc3ccc(N4CCCC4)cc3)n2)s1
65 to 66 °C | COC(=O)C(=Cc1cc(OC)cc(OC)c1)c1ccc(Oc2ccc(CC3SC(=O)NC3=O)cc2)cc1 (stereo not drawn)
196 °C | CCOC(=O)C(C)(C)S(=O)(=O)c1ccc(OC)cc1
102 to 103 °C | OC1CCCCc2cc(OCC3CCCCC3)ccc21 (stereo not drawn)
195 °C | CN1CCN(S(=O)(=O)c2cccc(NC(=O)c3cnn4c(C(F)(F)F)cc(-c5ccc(Cl)cc5)nc34)c2)CC1
193 to 195 °C | CCOC(=O)c1cnn(C)c1C(=O)Nc1ccn2nc(N(C)C)nc2c1

melting point | SMILES
93 to 94 °C | CC(C)OP(=O)(CNc1cc(Oc2ccc(C(F)(F)F)cc2Cl)ccc1[N+](=O)[O-])OC(C)C
90 to 91 °C | CCOP(C)(=O)c1cc(Cl)ccc1Cl (stereo not drawn)
177 to 179 °C | COC(=O)c1ccc(-c2ccc(Cl)cc2)[nH]1
70 to 75 °C | O=C(O)CCc1cc2cc(Cl)ccc2n1S(=O)(=O)c1ccc(Oc2ccccc2)cc1
178 to 179 °C | COc1cc2c(cc1OC)CC(N1CC(O)CC1=O)CC2 (stereo not drawn)
315 to 320 °C | Nc1cnc2cccnc2c1O
128 to 129 °C | Cc1oc(-c2ccccc2)nc1COc1ccc(CON=C(C(=O)O)C(C)C)cc1
94 to 99 °C | COc1cc(N2CCC(N3CCN(C)CC3)CC2)ccc1N
245 to 247 °C | CCOc1ccc(NC=C(C#N)C(=O)Nc2cc(OC)c(Cl)cc2Cl)cc1F
118 to 122 °C | CCN1CCC(=O)N(c2ccccc2C(C)C)C1=S
189 to 191 °C | O=C(O)c1ccccc1-c1ccc(C(=O)N2Cc3ccc(C(=O)NCc4cccnc4)n3Cc3ccccc32)cc1
79 to 82 °C | CC(=O)Oc1ccccc1NC(=O)CBr
109 to 110 °C | COc1cc2c(cc1OCc1ccccc1)CCN(C(=O)NCCN(C)C1CCCCC1)C2c1ccccc1 (stereo not drawn)
299 to 302 °C | O=C1c2cccc([N+](=O)[O-])c2C(=O)c2cccc(O)c21
262 to 268 °C | Cc1ccnc2ccc(Cc3cnc(N)nc3N)cc12
117 to 118 °C | CCCC=Cc1c(C(C)C)nc(C(C)C)c(CO)c1-c1cccc(F)c1
189 to 190 °C | N=c1cc(NC(=S)NCc2ccccc2)nc2n1CCCS2
81 to 83 °C | C/C(=C\Cn1oc(=O)[nH]c1=O)c1ccc2oc(Cc3nc(-c4ccccc4)oc3C)cc2c1
171 to 173 °C | Cc1ccccc1NS(=O)(=O)c1cc([N+](=O)[O-])ccc1C
223 to 224 °C | CCOC(=O)c1c(-c2ccccc2Cl)c2cc(Cl)ccc2[nH]c1=O
72 to 73 °C | CCNc1nc2ccc(CCc3ccc(CN(C)C)o3)cc2o1
165 to 167 °C | O=C1Nc2cccc(-c3cccc(Cl)c3)c2/C1=C/c1ccc[nH]1
